Experimental data taken from patent publication US7173129B2, “Sulfonamide-substituted chalcone derivatives and their use to treat diseases” (Athero Genics, Inc., priority 2003, dated 2007).
Structures can show the parent of a compound that is named as a salt.

Experiments:
VCAM-1 = assay: In Vitro VCAM-1 Assay (TNF-α stimulated endothelial cells, cell-surface ELISA); type: cell-based; conditions: primary human aortic (HAEC) or pulmonary (HPAEC) endothelial cells, TNF-α 1 ng/ml, approximately 16 hours, ELISA OD 450 nm
Method: Cell Culture and compound dosing: Cultured primary human aortic (HAEC) or pulmonary (HPAEC) endothelial cells were obtained from Clonetics, Inc., and were used below passage 9. Cells were seeded in 96 well plates such that they would reach 90–95% confluency by the following day. On the following day the cells were stimulated with TNF-α (1 ng/ml) in the presence or absence of compounds dissolved in DMSO such that the final concentration of DMSO is 0.25% or less. To establish a dose curve for each compound, four concentrations in 2- to 5-fold increments were used. Cells were exposed to TNF-α and compounds for approximately 16 hours. The next day the cells were examined under microscope to score for visual signs of toxicity or cell stress.
Following 16 hr exposure to TNF-α and compound the media was discarded and the cells were washed once with Hanks Balanced Salt Solution (HBSS)/Phosphate buffered saline (PBS) (1:1). Primary antibodies against VCAM-1 (0.25 μg/ml in HBSS/PBS+5% FBS) were added and incubated for 30–60 minutes at 37° C. Cells were washed with HBSS/PBS three times, and secondary antibody Horse Radish Peroxidase (HRP)-conjugated goat anti-mouse IgG (1:500 in HBSS/PBS+5% FBS) were added and incubated for 30 minutes at 37° C. Cells were washed with HBSS/PBS four time and TMB substrate were added and incubated at room temperature in the dark until there was adequate development of blue color. The length of time of incubation was typically 5–15 minutes. 2N sulfuric acid was added to stop the color development and the data was collected by reading the absorbance on a BioRad ELISA plate reader at OD 450 nm. The results are expressed as IC50 values (the concentration (micromolar) of compound required to inhibit 50% of the maximal response of the control sample stimulated by TNF-α only).

[1] = Homo sapiens, Endothelial cell, 16 h

IC50 (VCAM-1; [1]) [µM] | melting point | Structure (SMILES) | IC50 (VCAM-1) [µM]
> 10 | 218 to 220 °C | COc1cc(OC)c(-c2cc3ccccc3[nH]2)cc1/C=C/C(=O)c1ccc(S(=O)(=O)NC(C)=O)cc1 [Example 42, N-Acetyl-4-{3E-[5-(1H-indol-2-yl)-2,4-dimethoxyphenyl]acryloyl}benzenesulfonamide] | –
< 10 | 214 to 216 °C | CONS(=O)(=O)c1ccc(C(=O)/C=C/c2cc(-c3cc4ccccc4n3C)c(OC)cc2OC)cc1 [Example 30, 4-{3E-[2,4-Dimethoxy-5-(1-methyl-1H-indol-2-yl)phenyl]acryloyl}-N-methoxybenzenesulfonamide] | –
– | – | COc1cc(OC)c(-c2cccs2)cc1/C=C/C(=O)c1ccc(S(=O)(=O)N2CCN(C)CC2)cc1 [Example 21, 3E-(2,4-Dimethoxy-5-thien-2-ylphenyl)-1-[4-(4-methylpiperazine-1-sulfonyl)phenyl]propenone] | < 10
< 10 | 120 to 122 °C | COc1cc(OC)c(-c2cc3ccccc3n2C)cc1/C=C/C(=O)c1ccc(S(=O)(=O)N(C)C)cc1 [Example 31, 4-{3E-[2,4-Dimethoxy-5-(1-methyl-1H-indol-2-yl)phenyl]acryloyl}-N,N-dimethylbenzenesulfonamide] | –
– | – | COc1cc(OC)c(-c2cccs2)cc1/C=C/C(=O)c1ccc(S(=O)(=O)Nc2nnn[nH]2)cc1 [Example 4, 4-[3E-(2,4-Dimethoxy-5-thien-2-ylphenyl)acryloyl]-N-(1-H-tetrazol-5-yl)benzenesulfonamide] | > 10
< 5 | 144 to 146 °C | CCCC(=O)NS(=O)(=O)c1ccc(C(=O)/C=C/c2cc(-c3cc4ccccc4n3C)c(OC)cc2OC)cc1 [Example 37, N-Butyryl-4-{3E-[2,4-dimethoxy-5-(1-methyl-1H-indol-2-yl)phenyl]acryloyl}benzenesulfonamide] | –
> 10 | 155 to 158 °C | COc1cc(OC)c(N2CCCC2)cc1/C=C/C(=O)c1ccc(S(=O)(=O)NCC(=O)O)cc1 [Example 56, {4-[3E-(2,4-Dimethoxy-5-pyrrolidin-1-ylphenyl)acryloyl]benzenesulfonylamino}acetic acid] | –
< 5 | 202 to 203 °C | COc1cc(OC)c(-c2cccs2)cc1/C=C/C(=O)c1ccc(S(=O)(=O)Nc2cc(C)on2)cc1 [Example 1, 4-[3E-(2,4-Dimethoxy-5-thien-2-yl-phenyl)acryloyl]-N-(5-methylisoxazol-3-yl)benzenesulfonamide] | –
< 5 | – | CCCC(=O)NS(=O)(=O)c1ccc(C(=O)/C=C/c2cc(-c3cc4ccccc4[nH]3)c(OC)cc2OC)cc1 [Example 47, N-Butyryl-4-{3E-[5-(1H-indol-2-yl)-2,4-dimethoxyphenyl]acryl}benzenesulfonamide] | –
< 5 | 220 to 221 °C | COc1cc(OC)c(-c2cccs2)cc1/C=C/C(=O)c1ccc(S(=O)(=O)Nc2nccs2)cc1 [Example 8, 4-[3E-(2,4-Dimethoxy-5-thien-2-ylphenyl)acryloyl]-N-thiazol-2-ylbenzenesulfonamide] | –
< 5 | 243 to 245 °C (dec.) | COc1cc(OC)c(-c2cc3ccccc3[nH]2)cc1/C=C/C(=O)c1ccc(S(=O)(=O)NC(=O)C(C)C)cc1 [Example 35, 4-{3E-[5-(1H-Indol-2-yl)-2,4-dimethoxyphenyl]acryloyl}-N-isobutyrylbenzenesulfonamide] | –
– | – | COc1cc(OC)c(-c2cccs2)cc1/C=C/C(=O)c1ccc(S(=O)(=O)Nc2cc(C)no2)cc1 [Example 9] | < 10
< 10 | 167 to 168 °C | COc1cc(OC)c(-c2cc3ccccc3n2C)cc1/C=C/C(=O)c1ccc(S(=O)(=O)NCCN2CCOCC2)cc1 [Example 18, 4-{3E-[2,4-Dimethoxy-5-(1-methyl-1H-indol-2-yl)phenyl]acryloyl}-N-(2-morpholin-4-yl-ethyl)benzenesulfonamide] | –
< 5 | 198 to 199 °C | COc1cc(OC)c(-c2cccs2)cc1/C=C/C(=O)c1ccc(S(=O)(=O)Nc2ccon2)cc1 [Example 7, 4-[3E-(2,4-Dimethoxy-5-thien-2-ylphenyl)acryloyl]-N-isoxazol-3-ylbenzenesulfonamide] | –
< 5 | 124 to 128 °C | COc1cc(OC)c(N2CCCC2)cc1/C=C/C(=O)c1ccc(S(=O)(=O)Nc2ccccn2)cc1 [Example 52, 4-[3E-(2,4-Dimethoxy-5-pyrrolidin-1-yl-phenyl)-acryloyl]-N-pyridin-2-yl-benzenesulfonamide] | –
> 10 | 64 to 68 °C | COc1cc(OC)c(N2CCCC2)cc1/C=C/C(=O)c1ccc(S(=O)(=O)NCCCN2CCN(C)CC2)cc1 [Example 55, 4-[3E-(2,4-Dimethoxy-5-pyrrolidin-1-ylphenyl)acryloyl]-N-[3-(4-methyl-piperazin-1-yl)propyl]benzenesulfonamide] | –
– | > 250 °C | CCC(=O)[N-]S(=O)(=O)c1ccc(C(=O)/C=C/c2cc(-c3cc4ccccc4[nH]3)c(OC)cc2OC)cc1.[Na+] [Example 46, 4-{3E-[5-(1H-Indol-2-yl)-2,4-dimethoxyphenyl]acryloyl}-N-propionylbenzenesulfonamide sodium salt] | –
– | 249 to 251 °C (dec.) | COc1cc(OC)c(-c2cc3ccccc3[nH]2)cc1/C=C/C(=O)c1ccc(S(=O)(=O)[N-]C(=O)C(C)C)cc1.[Na+] [Example 36, 4-{3E-[5-(1H-Indol-2-yl)-2,4-dimethoxyphenyl]acryloyl}-N-isobutyrylbenzenesulfonamide sodium salt] | –
– | – | COc1cc(OC)c(-c2cc3ccccc3n2C)cc1/C=C/C(=O)c1ccc(S(=O)(=O)NCc2cccnc2)cc1 [Example 17, 4-{3E-[2,4-Dimethoxy-5-(1-methyl-1H-indol-2-yl)phenyl]acryloyl}-N-pyridin-3-ylmethy-benzenesulfonamide] | < 10
– | 160 to 170 °C | COc1cc(OC)c(-c2cccs2)cc1/C=C/C(=O)c1ccc(S(=O)(=O)NCC(F)(F)F)cc1 (as salt: sodium) [Example 25, 4-[3E-(2,4-Dimethoxy-5-thien-2-ylphenyl)acryloyl]-N-(2,2,2-trifluoroethyl)benzenesulfonamide sodium salt] | –
< 5 | – | COc1cc(OC)c(-c2cc3ccccc3n2C)cc1/C=C/C(=O)c1ccc(S(=O)(=O)Nc2cc(C)on2)cc1 [Example 16, 4-{3E-[2,4-Dimethoxy-5-(1-methyl-1H-indol-2-yl)phenyl]acryloyl}-N-(5-methylisoxazol-3-yl)benzenesulfonamide sodium salt] | –
< 5 | – | CCCC(=O)NS(=O)(=O)c1ccc(C(=O)/C=C/c2cc(N3CCCC3)c(OC)cc2OC)cc1 [Example 48, N-Butyryl-4-[3E-(2,4-dimethoxy-5-pyrrolidin-1-ylphenyl)acryloyl]benzenesulfonamide] | –
– | 191 to 193 °C | CCCC(=O)[N-]S(=O)(=O)c1ccc(C(=O)/C=C/c2cc(-c3cc4ccccc4[nH]3)c(OC)cc2OC)cc1.[Na+] [Example 49, N-Butyryl-4-{3E-[5-(1H-indol-2-yl)-2,4-dimethoxyphenyl]acryloyl}benzenesulfonamide sodium salt] | –
– | 202 to 206 °C | COc1cc(OC)c(-c2cc3ccccc3n2C)cc1/C=C/C(=O)c1ccc(S(=O)(=O)Nc2cc(C)on2)cc1 (as salt: sodium) [Example 16, 4-{3E-[2,4-Dimethoxy-5-(1-methyl-1H-indol-2-yl)phenyl]acryloyl}-N-(5-methylisoxazol-3-yl)benzenesulfonamide sodium salt] | –
– | > 260 °C | COc1cc(OC)c(-c2cccs2)cc1/C=C/C(=O)c1ccc(S(=O)(=O)Nc2cc(C)on2)cc1 (as salt: sodium) [Example 2, 4-[3E-(2,4-Dimethoxy-5-thien-2-ylphenyl)acryloyl]-N-(5-methylisoxazol-3-yl)benzenesulfonamide sodium salt] | –
< 10 | – | COc1cc(OC)c(-c2cccs2)cc1/C=C/C(=O)c1ccc(S(=O)(=O)N2CCCCC2C(=O)O)cc1 (stereo not shown) [Example 28, 1-{4-[3E-(2,4-Dimethoxy-5-thien-2-ylphenyl)acryloyl]benzenesulfonyl}piperidine-2-carboxylic acid] | –

Structure (SMILES) | IC50 (VCAM-1; [1]) [µM] | melting point | IC50 (VCAM-1) [µM]
CCOC(=O)NS(=O)(=O)c1ccc(C(=O)/C=C/c2cc(-c3cc4ccccc4[nH]3)c(OC)cc2OC)cc1 [Example 41, N-Ethoxycarbonyl-4-{3E-[5-(1H-indol-2-yl)-2,4-dimethoxyphenyl]acryloyl}benzenesulfonamide] | < 5 | – | –
CCOC(=O)[N-]S(=O)(=O)c1ccc(C(=O)/C=C/c2cc(-c3cc4ccccc4[nH]3)c(OC)cc2OC)cc1.[K+] [Example 40, N-Ethoxycarbonyl-4-{3E-[5-(1H-indol-2-yl)-2,4-dimethoxyphenyl]acryloyl}benzenesulfonamide potassium salt] | – | 220 to 222 °C | –
